Assay: In vitro elution of pharmaceutical agents from particles (Sotax USP 4 dissolution apparatus, HPLC)
Assay type: physicochemical
Method: For in vitro elution testing, drug was loaded on 1 mL samples of microspheres of approximately 400±100 micron diameter. Microsphere aliquots were loaded with 37.5 mg of doxorubicin in water or 50 mg of irinotecan in citrate buffer. Samples were incubated for 18 hours. Drug was eluted from the samples in a Sotax USP 4 dissolution apparatus. Samples were taken at incremental time intervals and analyzed by high performance liquid chromatography. Peak area was recorded (FIG. 4). Percent and concentration of drug eluted were calculated for each time interval.

[1] = 1 mL microsphere sample (approximately 400±100 micron diameter) loaded with 37.5 mg doxorubicin in water
[2] = 1 mL microsphere sample (approximately 400±100 micron diameter) loaded with 50 mg irinotecan in citrate buffer

SMILES | amount of drug eluted over the first day [1] [mg] | percent of drug eluted over the first day [1] [%] | amount of drug eluted over the first day [2] | percent of drug eluted over the first day [2] [%]
COc1cccc2c1C(=O)c1c(O)c3c(c(O)c1C2=O)C[C@@](O)(C(=O)CO)C[C@@H]3O[C@H]1C[C@H](N)[C@H](O)[C@H](C)O1 [doxorubicin] | 24.5 | 65 |  | 
CCc1c2c(nc3ccc(OC(=O)N4CCC(N5CCCCC5)CC4)cc13)-c1cc3c(c(=O)n1C2)COC(=O)[C@]3(O)CC [irinotecan] |  |  | over 45 mg | 95

Source: US12364786B2, “Polymer particles” (Terumo Corporation, priority 2016, dated 2025)
